Format in all cases: cell-based, S. aureus
The test system of assay [1] is BAA-44, NRS-100, NRS-384, NR-46414 and NR-46421. Briefly: MIC of 11b on its own in a variety of MRSA and VRSA strains. To be noted: all strains tested. How it is done: (§1) The minimum re-sensitizing concentrations (MRCS) of 11b to re-sensitize a variety of MRSA strains to β-lactam antibiotics, amox/clav and cefazolin was also evaluated.
The minimal inhibitory concentrations (MICS) of antimicrobial compounds and 11b were determined by the broth microdilution method detailed in the Clinical and Laboratory Standards Institute (CLSI) handbook. All antimicrobial compounds were purchased from Sigma-Aldrich. The growth media used for all MIC experiments was Mueller Hinton Broth (MHB) purchased from HIMEDIA through VWR (cat: 95039-356). The inoculum was prepared by diluting a bacterial day culture (OD600 0.15-0.4) to OD600 0.002. This dilution was further diluted two fold when added to 96 well microplates (USA Scientific CytoOne 96-well TC plate, cat: CC7682-7596) for a final inoculum concentration of OD600 0.001. All plates were incubated at 37° C. with shaking for 18 hours before results were interpreted.

For the next assay, the system named is MRSA strain ATCC BAA-44. Put plainly: Checkerboard MIC study of 11b and methicillin (FICI). The settings on record: 11b with methicillin, ≤0.5 indicates synergy. The procedure:
Tetracyclic indolenine compounds were then evaluated in a series of bacterial whole-cell assays. Compound 11b potentiated the activity of methicillin in a multi-drug resistant MRSA strain, ATCC BAA-44. To assess the degree of synergy between 11b and methicillin, a checkerboard minimum inhibitory concentration (MIC) study was performed.

For assay [2], the system named is BAA-44, NRS-100, NRS-384, NR-46414 and NR-46421. Briefly: MRC of 11b for amox/clav and cefazolin in a variety of MRSA and VRSA strains. The settings on record: all strains tested. How it is done: as §1
Antibiotic MIC values where S. aureus is considered susceptible were determined from the CLSI handbook. MHB was supplemented with the antimicrobial at a concentration two fold greater than the CLSI susceptible MIC value. Two-fold serial dilutions of 11b were prepared in antibiotic supplemented media in 96-well microplates. These were inoculated with MRSA diluted to OD600 0.002 and incubated at 37° C. with shaking for 18 hours before results were interpreted. The concentration of 11b in antibiotic supplemented media at which there was no observable growth was considered the minimum resensitizing concentration (MRC). For amoxicillin/clavulanic acid, the initial concentration was 8/4 μg/mL; for cefazolin, 16 μg/mL. A 50 μL portion of the antibiotic containing media was added to each well of 96-well plates, and 100 μL was added to the top row. A 1.28 μL portion of 5 mg/mL 11b was added to the top row of each plate to afford a concentration of 64 μg/mL in the top row of each plate, and 2-fold serial dilutions were performed down the columns. […] The MRC value was determined as the concentration of 11b in the presence of antibiotic at which there was no observable overnight growth.

On to `C=C1CCC2C3=Nc4ccccc4C13CCN2C(=O)c1ccc(Cl)cc1` (stereo not drawn) [Compound 11b, 11-[(4-Chlorophenyl)carbonyl]-14-methylidene-8,11-diazatetracyclo[8.3.3.0^1,9.0^2.7]hexadeca-2(7),3,5,8-tetraene], for which, in assay [1], the MICs is 32 to 64 µg/mL. Further, the “Fractional Inhibitory Concentration Index (FICI)” value in the assay with MRSA strain ATCC BAA-44 was found to be 0.039. This molecule also registered an MRCs in assay [2] of 0.25 to 2 µg/mL.

Values taken from patent US10253024B2, “Polycyclic indoline and indolenine compounds” (The Regents of the University of Colorado, a body corporate, priority 2015, dated 2019).
